Earlier results as cited in patent US11610144B2, “Biosignature discovery for substance use disorder using statistical learning” (BioRealm LLC, priority 2018, dated 2023).
Entries after “also recorded” stand apart in the source; their conditions may differ.

Tests used:
smokers = details: meta-analyses of RCTs
[1] = test system: smokers, slow and normal nicotine metabolizers; details: NMR from direct biochemical measurement

Row | SMILES | smoking cessation efficacy compared with placebo (smokers) | response to treatment, VAR versus NRT [1]
1 | CC(NC(C)(C)C)C(=O)c1cccc(Cl)c1 (stereo not drawn) [BUP, bupropion] | significantly more effective than placebo | –
2 | c1cnc2cc3c(cc2n1)[C@@H]1CNC[C@H]3C1 [VAR, varenicline] | significantly more effective than placebo | responded significantly better than those randomized to NRT; also recorded: responded significantly better to VAR than to NRT
